According to article PMC10533049, “Anti-Inflammatory Halogenated Monoterpenes from the Red Alga Portieria hornemannii” (Marine Drugs, 2023):
Where two headings read alike, the source gives them in different places. Values belong to the molecule of their own block, whether it stands above or below them.

Experiments:
[1] = Viability of dendritic cells (CCK-8 assay); assay type: cell-based; conditions: for viability at 100 μg/mL: DCs, CCK-8, mean ± S.D., triplicate, read-out: Cell Viability (%) (DCs)
Experimental: (§1) In this study, the viability of D.C. cells was evaluated at a concentration of 100 μg/mL using a cell-counting-kit assay (CCK-8) obtained from Dojindo Molecular Technologies, Inc. (Kumamoto, Japan), which measured absorbance at a wavelength of 450 nm, following the methodology outlined by Chung et al.. The expression of the pro-inflammatory cytokine, TNF-α, in the culture supernatant was screened using the dendritic cells ELISA kit, as described in a previous study.

[2] = test system: TNF-α; assay: TNF-α expression in LPS-stimulated dendritic cells (ELISA); assay type: cell-based; conditions: for IC50: Dendritic cell; for Anti-inflammatory activity (result in words): LPS-stimulated dendritic cells, pro-inflammatory cytokine / TNF-α production
Experimental: as §1

[3] = test system: cell lines derived from the brain, kidney, and colon; set-up: method as in PMID 1501227, PMID 9443608; conditions: cited from earlier work
[4] = read-out: Anti-Inflammatory Activity (IC50) TNF-α Expression (LPS/DCs)

Structure (SMILES): C=C[C@@](C)(Cl)[C@@H](Cl)/C=C/C(C)(Cl)C(Cl)Cl (relative stereo) [Compound 2, (3R*,4S*,5E)-3,4,7,8,8-Pentachloro-3,7-dimethyl-octa-1,5-diene]
viability at 100 μg/mL [1]: 88.8 ± 8.1%
IC50 [2, 4]: > 100 µM

Structure (SMILES): C=C[C@@](C)(Cl)[C@@H](Br)/C=C/[C@](C)(Cl)C(Cl)Cl [Compound 1, (3R,4S,5E,7S)-4-Bromo-3,7,8,8-tetrachloro-3,7-dimethyl-octa-1,5-diene]
viability at 100 μg/mL [1]: 47 ± 2.1%
IC50 [2, 4]: 2.5 ± 0.4 µM
Anti-inflammatory activity (result in words) [2]: significantly reduce the TNF-α

Structure (SMILES): C=C[C@](C)(Cl)[C@H](Cl)/C=C/C(=C/Cl)C(Br)Br [Compound 3, (3S,4R,5E,7Z)-3,4,8-trichloro-7-dibromomethyl-3-methyl-octa-1,5,7-triene]
viability at 100 μg/mL [1]: 80.2 ± 8.3%
IC50 [2, 4]: > 100 µM
Anti-inflammatory activity (result in words) [2]: did not show any activity

Structure (SMILES): C=C[C@@](C)(Cl)[C@@H](Cl)/C=C/C(=C/Cl)C(Cl)Cl [Compound 4]
viability at 100 μg/mL [1]: 51.1 ± 2.2%
IC50 [2, 4]: 6.2 ± 1.1 µM
Anti-inflammatory activity (result in words) [2]: significantly reduce the TNF-α

Structure (SMILES): C=C[C@@](C)(Cl)[C@H](Cl)/C=C/C(=C/Cl)C(Cl)Cl [Compound 5]
viability at 100 μg/mL [1]: 49.1 ± 2.7%
IC50 [2, 4]: 10.6 ± 1.3 µM
Anti-inflammatory activity (result in words) [2]: significantly reduce the TNF-α

Structure (SMILES): C=C(Cl)[C@](Cl)(CBr)CC[C@@H](Br)C(C)(C)Cl [halomon]
Cytotoxicity in NCI human tumor cell line screen (result in words) [3]: significant differential cytotoxicity

IC50 ([2]; LPS-stimulated DCs, unit inferred, read-out: IC50, reduction of TNF-α production in LPS-stimulated dendritic cells): 23.1 ± 5.2 µM
Structure (SMILES): O=c1c(O)c(-c2ccc(O)c(O)c2)oc2cc(O)cc(O)c12 [quercetin, reference compound]
IC50 ([1]; dendritic cells (DCs), positive control, read-out: Cytotoxicity against DCs, IC50): 78.8 ± 7.3 µM
